Values after ≈ are worked out from the molar mass of the structure shown. Like-named read-outs stand apart in the source and are kept apart here.
How the values were obtained:
[1] = tested on: new or enlarging T2-weighted lesions on brain MRI; assay: New or enlarging T2-weighted lesions on brain MRI, Phase II RMS study (secondary endpoint); type: in vivo, human
Source text: (§1) This Phase II study was undertaken to evaluate the effect of fenebrutinib on brain magnetic resonance imaging (MRI) in participants with RMS. Participants were randomized to receive either fenebrutinib or placebo. In addition to MRI evaluations, participants were also monitored for other clinical outcomes of disease, including disability progression and MS relapse, as described more fully below.
(§2) Study Design: This clinical trial comprised a double-blind treatment (DBT) phase, where participants were randomized in a 2:1 ratio to receive either 200 mg BID oral fenebrutinib or non-active placebo, administered for 12 weeks. Participants were directed to self-administer two 100 mg tablets in the morning and two 100 mg tablets in the evening by mouth, for a total dose of 400 mg of fenebrutinib (or placebo) every day.
(§3) A total of 109 adults aged 18-55 with RMS were enrolled in the study: 73 in the fenebrutinib arm, and 36 in the placebo arm. […] Accordingly, the analysis of outcome for the double blind phase of the study included 70 patients in the fenebrutinib arm, and 36 patients in the placebo arm.
(§4) MRI Measurements: The primary efficacy endpoint for this study was the total number of new gadolinium-enhancing T1 (T1Gd+) lesions on brain MRI measured at Weeks 4, 8, and 12 of administration. The secondary efficacy outcomes were (1) the total number of new or enlarging T2-weighted lesions on brain MRI measured at Weeks 4, 8, and 12, and (2) the proportion of participants free from any new Gd-enhancing T1 lesions and new or enlarging T2-weighted lesions observed on brain MRI at Weeks 4, 8, and 12. Radiologic evaluation for the primary efficacy parameter was performed using a standardized MRI protocol at screening, and at Weeks 4, 8, and 12 for each participant.
Results: Secondary Endpoint-Total Number of New or Enlarging T2-Weighted Lesions at Weeks 4, 8, and 12 combined: This secondary endpoint was met, and a summary of this secondary endpoint analysis is provided in Table 5. FIG. 3 provides bar graphs illustrating some of the data in these tables and providing additional analyses. In this figure, the large arrows indicate the relative reduction (95% confidence interval) of lesions. The proportion of patients with new/enlarging T2-weighted lesions is the number of participants that have a new lesion at that specific visit alone divided by the number of participants with a scan at that specific visit alone at the indicated week. There was a 95% reduction and only 3.2% of patients with new/enlarging lesions at Week 12.

[2] = tested on: new Gd-enhancing T1 lesions and new or enlarging T2-weighted lesions on brain MRI; assay: Proportion of participants free from any new Gd-enhancing T1 lesions and new or enlarging T2-weighted lesions on brain MRI, Phase II RMS study (secondary endpoint); type: in vivo, human
Source text: as §1, §2, §3, §4
Results: Secondary Endpoint-Proportion of Participants Free from any new Gd+ Enhancing T1 Lesions and New or Enlarging T2-weighted Lesions at Weeks 4, 8, and 12: This secondary endpoint was also met, and a summary of the analysis provided in Table 8.

[3] = Fenebrutinib concentration in CSF and plasma after 12 weeks of continuous administration (exploratory endpoint); type: in vivo, human
Source text: Exploratory Endpoints: Exploratory endpoints included the total number of new T1-hypointense lesions on MRI at weeks 4, 8, and 12; the fenebrutinib concentration in CSF collected at baseline and at or after Week 12; and plasma pharmacokinetics.
Results: Exploratory Endpoint-Evaluation of CSF: Cerebrospinal samples (CSF) were taken from 11 patients following 12 weeks of continuous fenebrutinib administration. A blood plasma sample was taken at the same time for 4 of the 11 patients. The concentration of fenebrutinib in CSF at 12 Weeks was evaluated, and presented in FIG. 5 in comparison to the IC50 of fenebrutinib (active inhibitory threshold) and the IC90 of fenebrutinib (maximal inhibitory threshold) as evaluated in different in vitro assays. From the figure, (a) the mean fenebrutinib CSF concentration is following 12 weeks of continuous fenebrutinib administration; (1) the data for CD63 and CD69 assays was previously presented as Weber M S, et al. at AAN 2021 Virtual Annual Meeting, April 17-22. (P15.091); and (2) the data for the phospho-BTK assay was previously presented in Keaney J, et al. J Neuroimmune Pharmacol 2019; 14:448-461. Analysis of fenebrutinib concentration in CSF, plasma, and the ratio for the four patients for which a plasma sample was taken is provided in Table 11.
CD63 is a myeloid lineage cell activation marker; CD69 is a B-cell activation marker; the phospho-BTK assay evaluates target engagement through inhibition of anti-IgM induced BTK Y223 autophosphorylation in human whole blood. Procedures for performing these three assays may be found in Crawford J J, et al. J Med Chem 2018; 6:2227-2245. Fenebrutinib has a dual mechanism of action, inhibiting both B-cell and myeloid lineage cell activation.

[4] = tested on: CD69 expression on B cells; conditions: in vitro human whole blood assay; previously presented Weber M S, et al. AAN 2021; cited from earlier work

**Q.** With C[C@H]1CN(C2COC2)CCN1c1ccc(Nc2cc(-c3ccnc(N4CCn5c(cc6c5CC(C)(C)C6)C4=O)c3CO)cn(C)c2=O)nc1 [Fenebrutinib, (S)-2-(3′-(hydroxymethyl)-1-methyl-5-((5-(2-methyl-4-(oxetan-3-yl)piperazin-1-yl)pyridin-2-yl)amino)-6-oxo-1,6-dihydro-[3,4′-bipyridin]-2′-yl)-7,7-dimethyl-2,3,4,6,7,8-hexahydro-1H-cyclopenta[4,5]pyrrolo[1,2-a]pyrazin-1-one] as the compound, how does the “Number of New or Enlarging T2-Weighted Lesions, Mean (SD), Week 4” value ([1]; 200 mg BID oral, Week 4, n = 70, min-max 0-21, placebo 1.222 (2.218)) read?
**A.** The value was 1.043 (2.990).

**Q.** And the “Number of New or Enlarging T2-Weighted Lesions, Mean (SD), Week 8” value ([1]; 200 mg BID oral, Week 8, n = 67, min-max 0-4, placebo 0.824 (1.359))?
**A.** Its value is 0.104 (0.526).

**Q.** What about the “Number of New or Enlarging T2-Weighted Lesions, Mean (SD), Week 12” value ([1]; 200 mg BID oral, Week 12, n = 63, min-max 0-1, placebo 0.545 (1.121)) of the same compound?
**A.** The value was 0.032 (0.177).

**Q.** What about the “Total Number of New or Enlarging T2-Weighted Lesions” value ([1]; 200 mg BID oral, Weeks 4, 8, and 12 combined, N = 70, 201 scans, placebo 90) of the same compound?
**A.** The value was 82.

**Q.** And the “New or Enlarging T2-Weighted Lesion rate, adjusted” value ([1]; 200 mg BID oral, Weeks 4, 8, and 12 combined, placebo 0.634)?
**A.** The value was 0.168.

**Q.** What about the “New or Enlarging T2-Weighted Lesion rate, unadjusted” value ([1]; 200 mg BID oral, Weeks 4, 8, and 12 combined, placebo 0.874) of the same compound?
**A.** The value was 0.408.

**Q.** And the “proportion of patients with new/enlarging T2-weighted lesions, Week 12” value ([1]; Week 12, participants with a new lesion at that visit divided by participants with a scan at that visit)?
**A.** The value was 3.2%.

**Q.** And the “Relative Reduction of New or Enlarging T2-Weighted Lesions, Week 4” value ([1]; vs placebo, Week 4, 95% CI −13%, 77%)?
**A.** The value was 49%.

**Q.** And the “Relative Reduction of New or Enlarging T2-Weighted Lesions, Week 8” value ([1]; vs placebo, Week 8, 95% CI 72%, 96%)?
**A.** The value was 90%.

**Q.** And the “Relative Reduction of New or Enlarging T2-Weighted Lesions, Week 12” value ([1]; vs placebo, Week 12, 95% CI 77%, 99%)?
**A.** The value was 95%.

**Q.** What about the “Rate Ratio, adjusted (new or enlarging T2-weighted lesions)” value ([1]; vs placebo, Weeks 4, 8, and 12 combined, 95% CI (0.128, 0.550)) of the same compound?
**A.** Its value is 0.265.

**Q.** And the “Relative Reduction in new or enlarging T2-weighted lesions” value ([1]; vs placebo, Weeks 4, 8, and 12 combined, 95% CI (45.0%, 87.2%), p-value 0.0004)?
**A.** The value was 73.5%.

**Q.** And the “Relative Reduction of New or Enlarging T2-Weighted Lesions, Weeks 8 and 12” value ([1]; vs placebo, Weeks 8 and 12)?
**A.** The value was 93%.

**Q.** And the “No. of patients free from T1 Gd+ and T2-weighted lesions, Week 4” value ([2]; Week 4, N = 70, placebo 21 of 36)?
**A.** The value was 51.

**Q.** And the “Proportion free from new T1 Gd+ and new or enlarging T2-weighted lesions, Week 4” value ([2]; Week 4, N = 70, placebo 58.3%)?
**A.** Its value is 72.9%.

**Q.** What about the “No. of patients free from T1 Gd+ and T2-weighted lesions, Week 8” value ([2]; Week 8, N = 67, placebo 20 of 34) of the same compound?
**A.** Its value is 63.

**Q.** And the “Proportion free from new T1 Gd+ and new or enlarging T2-weighted lesions, Week 8” value ([2]; Week 8, N = 67, placebo 58.8%)?
**A.** The value was 94.0%.

**Q.** What about the “No. of patients free from T1 Gd+ and T2-weighted lesions, Week 12” value ([2]; Week 12, N = 63, placebo 24 of 33) of the same compound?
**A.** The value was 61.

**Q.** What about the “Proportion free from new T1 Gd+ and new or enlarging T2-weighted lesions, Week 12” value ([2]; Week 12, N = 63, placebo 72.7%) of the same compound?
**A.** The value was 96.8%.

**Q.** What about the “No. of patients who are free from new T1 Gd+ and New or Enlarging T2-weighted Lesions During DBT” value ([2]; overall, weeks 4, 8, and 12, N = 70, placebo 18) of the same compound?
**A.** Its value is 51.

**Q.** And the “Proportion of patients free from new T1 Gd+ and new or enlarging T2-weighted lesions, overall” value ([2]; overall, weeks 4, 8, and 12, N = 70, placebo 50.0%)?
**A.** Its value is 72.9%.

**Q.** What about the “Odds Ratio, adjusted (free from new T1 Gd+ and new or enlarging T2-weighted lesions)” value ([2]; vs placebo, weeks 4, 8, and 12, 95% CI (exact) (1.317, 13.078), p-value (exact) 0.0117) of the same compound?
**A.** The value was 4.005.

**Q.** What about the “likelihood to be free from new T1 Gd+ lesions and new or enlarging T2-weighted lesions” value ([2]; weeks 4, 8, and 12, compared to placebo group) of the same compound?
**A.** The value was “four times more likely to be free from new T1 Gd+ lesions and new or enlarging T2-weighted lesions”.

**Q.** What about the “presence in CSF relative to in vitro activity” value ([3]; after 12 weeks of continuous administration) of the same compound?
**A.** The value was “present in the CSF at levels sufficient to reduce activation of B cells and microglia progenitor cells in vitro”.

**Q.** And the concentration at 2016 h ([3]; human, csf, po, 200 mg, 11 patients, following 12 weeks of continuous administration, read-out: mean fenebrutinib CSF concentration)?
**A.** The concentration at 2016 h was 43.1 ng/mL.

**Q.** And the concentration at 2016 h ([3]; human, csf, po, 200 mg, n = 4 patients, after 12 weeks of continuous administration, 200 mg BID oral, read-out: CSF concentration, Median (min, max))?
**A.** The concentration at 2016 h was 50.2 ng/mL.

**Q.** And the Kp at 2016 h ([3]; human, csf, po, 200 mg, n = 4 patients, after 12 weeks of continuous administration, total plasma, read-out: CSF:plasma ratio, Median (min, max))?
**A.** Its Kp at 2016 h is 0.061.

**Q.** What about the concentration at 2016 h ([3]; human, plasma, po, 200 mg, n = 4 patients, after 12 weeks of continuous administration, 200 mg BID oral, read-out: Total plasma concentration, Median (min, max)) of the same compound?
**A.** The concentration at 2016 h was 691 ng/mL.

**Q.** And the “IC90, CD69 (B-cell activation marker)” value [4]?
**A.** The value was 0.0432 µg/mL (≈ 0.065 µM).
